Assay results taken from patent US20090253134A1, “Cellular Pyrogen Test” (Fraunhofer-Gesellschaft zur Forderung der angewandten …, priority 2006, published 2009).
Entries after “also recorded” stand apart in the source; their conditions may differ. Blank lines part the entries; values can stand above or below the substance they belong to.

How the values were obtained:
[1] = target: T1, TLR-4/CD14 (Homo sapiens, UniProt O00206+Q9Y6Y9); assay: NIH-3T3 TLR-4/CD14 SEAP reporter gene pyrogen test; type: cell-based
T1 construct: expressed in transfected cells; host or cells: NIH-3T3 (murine fibroblasts), clone 4/5
Text: The cell line NIH-3T3 was transfected with a TLR-4/CD14 complex as well as the reporter gene plasmid SEAP/ELAM-1.
The endotoxin (LPS)-mediated induction of TLR-4 leads according to a signal cascade to activation of the transcription factor NF-κB. Expression of the reporter gene SEAP is controlled by an ELAM-1 promoter inducible by NF-κB. NF-κB activation and therefore specifically secretion of SEAP then occurs on induction of TLR-4 by the endotoxin lipopolysaccharide LPS.
NIH-3T3 TLR-4/CD14 clone 4/5 P35 in a density of 30,000 to 200,000 cells/well (24-well) (corresponding cell count for other well volume) are inoculated in 500 μL/well in 0.5% FCS medium o/n for adhesion.
On the next day detection occurs by incubation with 300 μL/well detection medium, which is added directly to the induced cells: in the induced cells SEAP activity converts the substrate BCIP in the detection medium to a dark blue insoluble end product (indigo). As an alternative SEAP activity in the induced cells converts the substrate pNPP in the detection medium to a light yellow soluble color complex, which is determined photometrically at about 405 nm. The photometric analysis occurs about 2 hours after addition of the detection medium.
In one variant transfected cell lines are frozen in the corresponding assay format, here: a cell culture-well-plate (multiwell plate) in corresponding density (200,000 cells/well in 500 μL each (in 24-well)).
After thawing of the kit, addition of DMEM culture medium occurs for adhesive of the cells overnight. A medium with HEPES buffer permits incubation of the cell test in a heating cabinet, i.e., without CO2 gassing. Induction is carried out per test by addition of 100 ng/mL LPS. The detection is conducted after 24 hours by addition of 300 μL/well BCIP detection medium.
On a multiwell plate (96-well) NIH-3T3 TLR-4/CD14 SEAP P40 cells were frozen in a density of 30,000 cells/well in 100 μL medium (DMEM 80 mmol/L HEPES, 30% FCS and 5% DMSO) in suspension at −80° C.
After 72 hours to 4 weeks at −80° C. the cells were thawed by addition of 100 μL medium (10% FCS) at 37° C. […]

[2] = target: T2, TLR-5 (Homo sapiens, UniProt O60602); assay: Comparative TLR-5 test with HELA cells transfected with TLR-5 SEAP; type: cell-based; design: expressed in transfected cells; settings: 2 μg/mL flagellin; induced and noninduced controls both intensely blue
Method: FIG. 13 comparative experiment: TLR-5 test with HELA cells transfected with TLR-5 SEAP induced with 2 μg/mL flagellin; both the induced cells and the noninduced controls show intense blue coloration.

[3] = target: T2, TLR-5; assay: NIH-3T3 TLR-5 SEAP reporter gene test; type: cell-based; design: expressed in transfected cells; host or cells: NIH-3T3 (murine fibroblasts); settings: 2 μg/mL flagellin; BCIP
Method: The cell line NIH-3T3 was transfected with TLR-5 and the reporter gene plasmid SEAP. The measures correspond to example 1.
NIH-3T3 clone TLR-5 was inoculated in a density of 30,000 to 200,000 cells/well (24-well) in 500 μL/well in 0.5% FCS medium; induction occurs with 2 μg/mL flagellin; detection by incubation with 300 μL/well detection medium with BCIP.

[4] = target: T3, TLR-4/CD14 (Homo sapiens, UniProt O00206); assay: Comparative TLR-4 colour test with HEK blue 293 and other 293 fibroblasts transfected with TLR-4/CD14 SEAP; type: cell-based; settings: 100 ng/mL LPS; induced and noninduced controls both turn blue
T3 construct: expressed in transfected cells; host or cells: HEK blue 293 and other 293 cells (clones K2, K4)
Method: (§1) HEK blue 293 fibroblasts and other 293 fibroblasts were transfected with TLR-4/CD14 SEAP and induced with 100 ng/mL LPS. All other process parameters were chosen as in example 1 according to the invention.

[5] = target: T3, TLR-4/CD14; assay: SDS-PAGE/Western Blot analysis of SEAP expression in HEK293 and other 293 cells transfected with TLR-4/CD14 SEAP; type: cell-based; settings: 100 ng/mL LPS; cell pellets
Method: as §1
In addition, a Western Blot analysis of gene expression was conducted in known fashion: first antibody: anti-SEAP; conjugated second antibody: anti-mouse POD; marker: SeeBlue® Plus2; prestained standard.

[6] = test system: Limulus amebocyte lysate proenzyme; settings: cited from earlier work
[7] = test system: human whole blood cells; settings: cited from earlier work

T1 sequence (O00206 24-839): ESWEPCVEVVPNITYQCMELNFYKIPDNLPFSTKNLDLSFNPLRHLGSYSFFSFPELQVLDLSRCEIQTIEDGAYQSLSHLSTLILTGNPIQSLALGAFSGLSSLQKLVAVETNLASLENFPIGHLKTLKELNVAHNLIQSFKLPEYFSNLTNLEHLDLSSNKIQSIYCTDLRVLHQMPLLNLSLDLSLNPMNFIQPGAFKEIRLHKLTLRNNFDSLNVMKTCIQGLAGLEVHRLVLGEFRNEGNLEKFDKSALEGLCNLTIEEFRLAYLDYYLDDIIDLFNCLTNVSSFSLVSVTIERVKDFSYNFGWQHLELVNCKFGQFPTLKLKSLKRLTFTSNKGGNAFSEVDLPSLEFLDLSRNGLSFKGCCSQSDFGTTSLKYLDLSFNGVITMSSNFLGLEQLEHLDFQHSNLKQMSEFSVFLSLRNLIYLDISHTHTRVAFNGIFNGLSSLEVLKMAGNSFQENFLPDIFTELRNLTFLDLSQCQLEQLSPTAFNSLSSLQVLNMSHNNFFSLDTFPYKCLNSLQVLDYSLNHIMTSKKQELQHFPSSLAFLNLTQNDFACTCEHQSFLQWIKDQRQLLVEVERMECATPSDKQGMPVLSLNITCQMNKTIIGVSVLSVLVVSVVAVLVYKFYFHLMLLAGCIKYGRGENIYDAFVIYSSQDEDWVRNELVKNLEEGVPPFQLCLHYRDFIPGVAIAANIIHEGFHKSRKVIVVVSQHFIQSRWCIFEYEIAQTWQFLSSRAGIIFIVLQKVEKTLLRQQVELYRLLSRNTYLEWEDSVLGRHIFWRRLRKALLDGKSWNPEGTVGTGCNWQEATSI
T1 sequence (Q9Y6Y9 17-160 limits assumed): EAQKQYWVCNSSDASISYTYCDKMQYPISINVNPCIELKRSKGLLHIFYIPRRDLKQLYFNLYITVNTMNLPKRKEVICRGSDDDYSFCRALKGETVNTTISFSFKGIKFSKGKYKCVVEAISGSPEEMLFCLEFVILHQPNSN
T3 sequence (O00206 24-839): as the sequence (O00206 24-839) above
T2 sequence (O60602 21-858): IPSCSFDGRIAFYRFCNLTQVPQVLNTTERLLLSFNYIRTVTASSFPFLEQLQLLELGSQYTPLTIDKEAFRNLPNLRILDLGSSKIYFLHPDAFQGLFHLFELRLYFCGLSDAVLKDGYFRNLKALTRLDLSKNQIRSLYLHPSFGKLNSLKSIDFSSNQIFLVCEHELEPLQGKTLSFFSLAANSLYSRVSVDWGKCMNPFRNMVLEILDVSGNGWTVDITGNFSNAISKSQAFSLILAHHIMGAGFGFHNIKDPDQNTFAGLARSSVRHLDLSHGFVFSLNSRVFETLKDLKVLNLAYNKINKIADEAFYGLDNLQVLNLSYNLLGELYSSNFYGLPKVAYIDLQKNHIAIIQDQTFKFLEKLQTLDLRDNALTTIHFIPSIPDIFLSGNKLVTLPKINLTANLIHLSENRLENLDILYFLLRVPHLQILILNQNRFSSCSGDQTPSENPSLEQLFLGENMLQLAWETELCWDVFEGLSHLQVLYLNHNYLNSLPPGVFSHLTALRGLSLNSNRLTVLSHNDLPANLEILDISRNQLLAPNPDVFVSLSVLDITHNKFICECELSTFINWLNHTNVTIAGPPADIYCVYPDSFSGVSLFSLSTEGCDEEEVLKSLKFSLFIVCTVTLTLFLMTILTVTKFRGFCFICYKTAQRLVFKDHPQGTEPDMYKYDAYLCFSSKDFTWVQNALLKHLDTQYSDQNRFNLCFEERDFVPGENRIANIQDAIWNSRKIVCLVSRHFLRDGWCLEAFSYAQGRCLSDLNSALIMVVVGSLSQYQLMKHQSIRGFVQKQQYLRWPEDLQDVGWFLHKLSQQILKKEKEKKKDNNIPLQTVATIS

color change of detection medium (specificity) ([1]; induced with 25 μg/mL nonspecific pyrogen each): no color change
Substance: Poly IC

Substance: flagellin
specific induction / color test [2]: No specific induction is possible
blue coloration of induced cells [3]: specific blue coloration

Substance: lipopolysaccharide [LPS]
blue coloration of induced cells, frozen and rethawed cells ([1]; 100 pg/mL, NIH-3T3 TLR-4/CD14 SEAP P40, induction after 24 hours, detection after 3 hours): specific blue coloration
SEAP activity, BCIP color reaction after thawing ([1]; 100 ng/mL LPS, thawed NIH-3T3 clone 4/5 TLR-4/CD14, BCIP): deep dark blue
specific induction / color test [4]: no specific induction; also recorded: a specific detection is not possible
alkaline phosphatase (SEAP) expression, induced vs noninduced cells [5]: in the same amount
detection limit / sensitivity of LAL [6]: 3 pg/mL
sensitivity of IPT [7]: 20 to 50 pg/mL
